Source: publication PMC9873984, “Membrane cholesterol regulates inhibition and substrate transport by the glycine transporter, GlyT2” (Life Science Alliance, 2023)
Substitutions are numbered along the chain they refer to.

Experiments:
GlyT2 T512A mutant = biological target: T1, GlyT2 T512A mutant (Homo sapiens, UniProt Q9Y345, T512A); assay: Inhibitor washout time course (reversibility); assay type: cell-based; parameters: expressed in transfected cells; host or cells: Xenopus laevis oocytes injected with mutant RNA (pOTV vector); conditions: for Recovery at 30 Min / Half-life (transport current recovery): washout after 4 min IC50 concentration
T1 sequence (Q9Y345 1-797 T512A): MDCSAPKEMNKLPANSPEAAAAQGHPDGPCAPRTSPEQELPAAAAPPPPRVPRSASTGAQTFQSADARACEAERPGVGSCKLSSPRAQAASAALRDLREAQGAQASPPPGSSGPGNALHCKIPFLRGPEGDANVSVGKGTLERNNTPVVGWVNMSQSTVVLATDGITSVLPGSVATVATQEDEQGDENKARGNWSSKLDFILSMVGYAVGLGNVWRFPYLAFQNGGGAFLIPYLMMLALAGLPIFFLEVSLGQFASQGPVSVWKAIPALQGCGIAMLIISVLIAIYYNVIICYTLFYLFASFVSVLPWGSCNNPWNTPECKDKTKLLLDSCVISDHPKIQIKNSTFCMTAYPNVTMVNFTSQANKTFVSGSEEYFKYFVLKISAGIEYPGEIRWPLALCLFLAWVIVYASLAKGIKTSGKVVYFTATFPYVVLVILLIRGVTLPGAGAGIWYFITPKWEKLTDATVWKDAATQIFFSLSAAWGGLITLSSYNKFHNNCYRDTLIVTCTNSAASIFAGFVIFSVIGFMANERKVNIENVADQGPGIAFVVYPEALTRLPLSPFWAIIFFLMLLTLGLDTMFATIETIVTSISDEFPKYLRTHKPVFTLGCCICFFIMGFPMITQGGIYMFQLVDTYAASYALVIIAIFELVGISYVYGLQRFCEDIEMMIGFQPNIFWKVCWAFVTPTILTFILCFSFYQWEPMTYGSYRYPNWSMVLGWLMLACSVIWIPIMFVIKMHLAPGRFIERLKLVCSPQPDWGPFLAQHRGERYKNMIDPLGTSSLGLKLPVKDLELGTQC
Method: (§1) Reversibility of GlyT2 inhibitors was determined by applying an EC50 concentration of glycine followed by co-application of the inhibitor at an IC50 concentration once a stable current had been achieved. Inhibitors were applied for 4 min as this was sufficient time to produce substantial inhibition for each compound and allowed for their direct comparison. At the conclusion of 4 min (time 0), ND96 buffer was perfused through the recording chamber to wash the oocyte. […] Transport currents were normalized to glycine currents in the absence of inhibitor and converted to % recovery values via Y=It−It=0/Imax−It=0, where Y is % recovery, I is current in nA, Imax is the maximal current produced by the glycine EC50, and t is time in minutes. Washout kinetics were then determined by fitting % recovery values to the first-order rate equation: Y=(Y0−Plateau).e^(−Kt)+Plateau, where Y is the % recovery, Y0 is the point, which crosses the Y-axis (constrained to 0) and increases to the plateau (constrained to between 0 and 100), K is the rate constant (1/t), and t is time in minutes. […] Because of the slowly […] nature of the inhibitors, washout time courses involving cyclodextrin treatment could not be performed on the same cell. […] As these experiments could not occur on the same cell, differences in half-life and maximal recovery were analysed via an unpaired two-tailed t test.

GlyT2 Y430L mutant = biological target: T2, GlyT2 Y430L mutant (Homo sapiens, UniProt Q9Y345, Y430L); assay: Inhibitor washout time course (reversibility); assay type: cell-based; parameters: expressed in transfected cells; host or cells: Xenopus laevis oocytes injected with mutant RNA (pOTV vector)
T2 sequence (Q9Y345 1-797 Y430L): T1 sequence (Q9Y345 1-797 T512A) with Y430L, A512T
Method: as §1

[1] = washout after 4 min IC50 concentration

Increase of recovery after 30 min compared to WT (GlyT2 T512A mutant; T512A vs WT) | Recovery at 30 Min (GlyT2 T512A mutant; T512A) | Recovery at 30 Min (GlyT2 Y430L mutant; [1]) | Increase in recovery of current 30 min after application, vs WT (GlyT2 T512A mutant; T512A) | Half-life (transport current recovery) (GlyT2 T512A mutant; T512A) | Increase in recovery of current 30 min after application, vs WT (GlyT2 Y430L mutant) | Half-life (transport current recovery) (GlyT2 Y430L mutant; [1]) | SMILES
1.8 fold | 79.4% | 80.6% | – | – | – | – | CCCCCCCC/C=C\CCCCCCCC(=O)O[C@H](CC(=O)[O-])C[N+](C)(C)C [Oleoyl-L-Carnitine, oleoyl-L-carnitine]
– | 76.2 ± 4.1 % | 67.9 ± 2.3 % | 25.1% | 1.7 ± 0.3 min | 16.8% | – | CCCCCCCC/C=C\CCCCCCCC(=O)N[C@@H](CC(C)C)C(=O)O [Oleoyl-L-Leucine, oleoyl-L-leucine]
– | 63.5 ± 2.0% | 72.5 ± 2.1 % | – | – | 17.4% | – | CCCCCCCC/C=C\CCCCCCCC(=O)N[C@@H](CCCCN)C(=O)O [Oleoyl-L-Lysine, oleoyl-L-lysine]
– | No Recovery | No Recovery | – | No Recovery | – | No Recovery | CCCCCCCC/C=C\CCCCCCCC(=O)N[C@@H](Cc1c[nH]c2ccccc12)C(=O)O [Oleoyl-L-Tryptophan, oleoyl-L-tryptophan]
